Measurements taken from the NIST ThermoML archive (doi:10.1016/j.jct.2015.12.027).

Legend:
[1] = 81.5 kPa, Liquid, Vibrating tube method
[2] = refractive index (Na D-line) (dimensionless); settings: 81.5 kPa, Liquid, Standard Abbe refractometry
[3] = xn = mol fraction of the nth substance listed; settings: 81.5 kPa, Liquid, Vibrating tube method
[4] = refractive index (Na D-line) (dimensionless); xn = mol fraction of the nth substance listed; settings: 81.5 kPa, Liquid, Standard Abbe refractometry

Brc1ccccc1 [bromobenzene]
Settings	mass density, 293.15 K [kg/m3]	mass density, 303.15 K [kg/m3]	mass density, 313.15 K [kg/m3]	mass density, 323.15 K [kg/m3]	mass density, 333.15 K [kg/m3]	refractive index, 293.15 K	refractive index, 303.15 K	refractive index, 313.15 K	refractive index, 323.15 K	refractive index, 333.15 K
[1]	1495.52	1481.97	1468.41	1454.85	1441.22	–	–	–	–	–
[2]	–	–	–	–	–	1.55981	1.55442	1.5489	1.54319	1.53742

c1ccccc1 [benzene] + ClCCCl
x2 = 0
Settings	mass density, 293.15 K [kg/m3]	mass density, 303.15 K [kg/m3]	mass density, 313.15 K [kg/m3]	mass density, 323.15 K [kg/m3]	mass density, 333.15 K [kg/m3]	refractive index, 293.15 K	refractive index, 303.15 K	refractive index, 313.15 K	refractive index, 323.15 K	refractive index, 333.15 K
[3]	878.87	868.2	857.44	846.62	835.71	–	–	–	–	–
[4]	–	–	–	–	–	1.50118	1.49517	1.4885	1.48264	1.47638

O=[N+]([O-])c1ccccc1 [nitrobenzene]
Settings	mass density, 293.15 K [kg/m3]	mass density, 303.15 K [kg/m3]	mass density, 313.15 K [kg/m3]	mass density, 323.15 K [kg/m3]	mass density, 333.15 K [kg/m3]	refractive index, 293.15 K	refractive index, 303.15 K	refractive index, 313.15 K	refractive index, 323.15 K	refractive index, 333.15 K
[1]	1203.05	1193.15	1183.21	1173.27	1163.32	–	–	–	–	–
[2]	–	–	–	–	–	1.55241	1.54763	1.54288	1.53795	1.53289

ClCCCl [1,2-dichloroethane]
Settings	mass density, 293.15 K [kg/m3]	mass density, 303.15 K [kg/m3]	mass density, 313.15 K [kg/m3]	mass density, 323.15 K [kg/m3]	mass density, 333.15 K [kg/m3]	refractive index, 293.15 K	refractive index, 303.15 K	refractive index, 313.15 K	refractive index, 323.15 K	refractive index, 333.15 K
[1]	1252.82	1238.27	1223.53	1208.61	1193.61	–	–	–	–	–
[2]	–	–	–	–	–	1.44472	1.43948	1.43423	1.42897	1.42373

ClCCCl [1,2-dichloroethane] + Clc1ccccc1
x1 = 1
Settings	mass density, 293.15 K [kg/m3]	mass density, 303.15 K [kg/m3]	mass density, 313.15 K [kg/m3]	mass density, 323.15 K [kg/m3]	mass density, 333.15 K [kg/m3]	refractive index, 293.15 K	refractive index, 303.15 K	refractive index, 313.15 K	refractive index, 323.15 K	refractive index, 333.15 K
[3]	1252.82	1238.27	1223.53	1208.61	1193.61	–	–	–	–	–
[4]	–	–	–	–	–	1.44472	1.43948	1.43423	1.42897	1.42373

ClCCCl [1,2-dichloroethane] + Brc1ccccc1
x1 = 1
Settings	mass density, 293.15 K [kg/m3]	mass density, 303.15 K [kg/m3]	mass density, 313.15 K [kg/m3]	mass density, 323.15 K [kg/m3]	mass density, 333.15 K [kg/m3]	refractive index, 293.15 K	refractive index, 303.15 K	refractive index, 313.15 K	refractive index, 323.15 K	refractive index, 333.15 K
[3]	1252.82	1238.27	1223.53	1208.61	1193.61	–	–	–	–	–
[4]	–	–	–	–	–	1.44472	1.43948	1.43423	1.42897	1.42373

Clc1ccccc1 [chlorobenzene]
Settings	mass density, 293.15 K [kg/m3]	mass density, 303.15 K [kg/m3]	mass density, 313.15 K [kg/m3]	mass density, 323.15 K [kg/m3]	mass density, 333.15 K [kg/m3]	refractive index, 293.15 K	refractive index, 303.15 K	refractive index, 313.15 K	refractive index, 323.15 K	refractive index, 333.15 K
[1]	1106.49	1095.71	1084.86	1073.96	1063.01	–	–	–	–	–
[2]	–	–	–	–	–	1.52455	1.51902	1.51346	1.50781	1.50223

c1ccccc1 [benzene]
Settings	mass density, 293.15 K [kg/m3]	mass density, 303.15 K [kg/m3]	mass density, 313.15 K [kg/m3]	mass density, 323.15 K [kg/m3]	mass density, 333.15 K [kg/m3]	refractive index, 293.15 K	refractive index, 303.15 K	refractive index, 313.15 K	refractive index, 323.15 K	refractive index, 333.15 K
[1]	878.87	868.2	857.44	846.62	835.71	–	–	–	–	–
[2]	–	–	–	–	–	1.50118	1.49517	1.4885	1.48264	1.47638

ClCCCl [1,2-dichloroethane] + O=[N+]([O-])c1ccccc1
x1 = 1
Settings	mass density, 293.15 K [kg/m3]	mass density, 303.15 K [kg/m3]	mass density, 313.15 K [kg/m3]	mass density, 323.15 K [kg/m3]	mass density, 333.15 K [kg/m3]	refractive index, 293.15 K	refractive index, 303.15 K	refractive index, 313.15 K	refractive index, 323.15 K	refractive index, 333.15 K
[3]	1252.82	1238.27	1223.53	1208.61	1193.61	–	–	–	–	–
[4]	–	–	–	–	–	1.44472	1.43948	1.43423	1.42897	1.42373
